Values after ≈ are worked out from the molar mass of the structure shown.
Experiments:
[1] = system: Oncorhynchus mykiss; conditions: acute; duration: 96 hours; mortality
[2] = system: Folsomia candida; conditions: chronic/long-term; duration: 28 days; mortality
[3] = system: Tagia sp.; conditions: for LC50: acute, duration: 14 days, mortality; for NOEC: chronic/long-term, duration: 56 days, growth
[4] = system: Hypoaspis aculeifer; conditions: chronic/long-term; duration: 14 days; mortality
[5] = system: Typhlodromus pyri; assay: LR50; higher = less toxic; conditions: not reported; no effects
[6] = system: Daphnia magna; conditions: chronic/long-term; duration: 21 days
[7] = system: Canidae; conditions: Dog Other, clinical chemistry
[8] = system: Colinus virginianus; conditions: chronic
[9] = system: Oryctolagus sp.; conditions: reproduction developmental; body weight
[10] = system: Apis mellifera; conditions: acute, duration: 48 hours, mortality
[11] = system: Pimephales promelas; conditions: chronic/long-term; duration: 28 days; growth
[12] = system: Coturnix japonica; conditions: acute; oral; mortality
[13] = system: Lepomis macrochirus; conditions: acute; duration: 96 hours; mortality
[14] = system: Rattus norvegicus

Row | Compound | LC50 [1] [µg/mL] | NOEC [2] [mg/kg] | LC50 [3] [mg/kg] | NOEC [3] [mg/kg] | NOEC [4] [mg/kg] | LR50 [5] [g/ha] | NOEC [6] [mg/L] | NOAEL ([7]; chronic, duration: 1 years, oral) [mg/kg-day] | NOAEL ([7]; subchronic, duration: 90 days) [mg/kg-day] | NOEL [8] [mg/kg-day] | NOAEL [9] [mg/kg-day] | LD50 ([10]; dermal) [µg/piece] | LD50 ([10]; oral, unspecified) [µg/piece] | NOEC [11] [mg/L] | LD50 [12] [mg/kg-day] | LC50 [13] [µg/mL] | LD50 ([14]; acute, oral, mortality) [mg/kg] | NOAEL ([14]; chronic, duration: 2 years, M, histopathology: neoplastic) [mg/kg-day] | NOEL ([14]; reproduction developmental, body weight) [mg/kg-day]
1 | C=CCNC(=O)c1c([Si](C)(C)C)sc(C(=O)O)c1C [Silthiofam allyl acid] | > 113 | 0.207 | > 466 | 0.207 | 0.207 | – | – | – | – | – | – | – | – | – | – | – | – | – | –
2 | Cc1c(C(=O)O)sc([Si](C)(C)C)c1C(N)=O [Silthiofam amide acid] | > 110 | 0.194 | > 460 | 0.194 | 0.194 | – | – | – | – | – | – | – | – | – | – | – | – | – | –
3 | C=CCNC(=O)c1c([Si](C)(C)C)sc(C)c1C [Silthiofam] | – | 1.33 | 66.5 | 30 | – | > 40 | 0.47 | 10 | 10 | 250 | 20 | > 100 | > 106 | 0.89 | > 2250 | 11 (≈ 41.1 µM) | > 5000 | 5 | 23.5

Reference: EPA's ToxValDB 9.5 (doi:10.2903/j.efsa.2016.4574)
